Here are results for seven molecules from PubChem BioAssay (NCI).

“And” between values parts separate entries of the source, which are not always exact repeats. Identical values can stand only once.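 Results reflect a 48-hour exposure of cells in 96-well plates to compound at five concentrations. Here, GI50 denotes the concentration required for 50% inhibition of growth. TGI is the concentration that stops growth completely.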

Some test systems named below: CAKI-1 renal; ACHN renal; A498 renal; UO-31 renal; RXF 393 renal; HCT-116 colon; RPMI-8226 leukemia; SF-295 CNS; MOLT-4 leukemia; MDA-MB-435.
What all share (experiment): DTP human tumour cell line panel, 48 h

As usually defined, the GI50 is the concentration giving 50% growth inhibition. The term TGI denotes the concentration at which net growth stops. Regarding `Nc1nn(C(=O)Nc2ccc(Cc3ccccc3)cc2)c2ccc(Cl)cc12`, the GI50 with CAKI-1 renal was 212 nM; in the test with ACHN renal, 64.6 nM; in the test on A498 renal, 15900 nM; with UO-31 renal, 5900 nM; with RXF 393 renal, 15100 nM; with HCT-116 colon it was 354 nM. Moreover, the GI50 was 5210 nM with RPMI-8226 leukemia, 122 nM in the test with SF-295 CNS, 4870 nM in the test with MOLT-4 leukemia and 138 nM in the test on MDA-MB-435. Also, the TGI is over 100000 nM with CAKI-1 renal; 26400 nM in the test on ACHN renal; 52800 nM with A498 renal; 82700 nM in the test on UO-31 renal; 34100 nM in the test on RXF 393 renal; 24200 nM in the test with HCT-116 colon. Further, the TGI in the test on RPMI-8226 leukemia is 47700 nM; in the test with SF-295 CNS it was 19900 nM; with MOLT-4 leukemia, 47000 nM; in the test with MDA-MB-435, over 100000 nM.

`O=[N+]([O-])c1ccccc1S(=O)(=O)c1ccccc1[N+](=O)[O-]`: the total growth inhibition concentration (TGI) was over 100000 nM in the test on CAKI-1 renal; over 100000 nM with ACHN renal; over 100000 nM in the test on A498 renal; over 100000 nM in the test with UO-31 renal; 83800 nM in the test with RXF 393 renal; over 100000 nM with HCT-116 colon. The TGI in the test on RPMI-8226 leukemia, in the test with SF-295 CNS, in the test on MOLT-4 leukemia and in the test with MDA-MB-435 was over 100000 nM each time.

Regarding `C[C@@]12CCC[C@@](C)(C(=O)O)C1CC[C@]13C=C(CO)[C@](O)(CCC12)C3` (some centres undefined), the GI50 with CAKI-1 renal, in the test on ACHN renal, in the test with A498 renal, with UO-31 renal, in the test with RXF 393 renal and with HCT-116 colon was over 100000 nM each time. In addition, the GI50 in the test on RPMI-8226 leukemia, in the test with SF-295 CNS, with MOLT-4 leukemia and in the test with MDA-MB-435 was over 100000 nM each time. Moreover, the TGI with CAKI-1 renal, in the test with ACHN renal, with A498 renal, in the test with UO-31 renal, in the test with RXF 393 renal and in the test on HCT-116 colon was over 100000 nM in each case. The TGI in the test with RPMI-8226 leukemia, in the test with SF-295 CNS, with MOLT-4 leukemia and in the test on MDA-MB-435 was over 100000 nM in each case.

With `O=C(/C=C/c1ccccc1Cl)c1ccc(O)cc1`, the GI50 in the test on CAKI-1 renal was 6870 nM; in the test on ACHN renal it was 6990 nM; with A498 renal, 8460 nM; in the test with UO-31 renal it was 4850 nM; with RXF 393 renal, 1970 nM; in the test with HCT-116 colon, 2980 nM. In addition, the GI50 is 495 nM in the test on RPMI-8226 leukemia, 8970 nM with SF-295 CNS, 5640 nM in the test with MOLT-4 leukemia and 4230 nM in the test with MDA-MB-435. Moreover, the TGI in the test with CAKI-1 renal amounted to 20200 nM; with ACHN renal, 19200 nM; in the test on A498 renal, 21600 nM; with UO-31 renal, 14000 nM; with RXF 393 renal, 5590 nM; in the test with HCT-116 colon, 10800 nM. In addition, the TGI in the test with RPMI-8226 leukemia is 3390 nM; with SF-295 CNS it was 23700 nM; in the test with MOLT-4 leukemia it was over 57600 nM; with MDA-MB-435 it was 17600 nM.

For the molecule `C=C1C(=O)O[C@H]2[C@H]1CC/C(COC(=O)NCc1c[nH]c3ccc(OC)cc13)=C\CC[C@@]1(C)O[C@@H]21`, the GI50 in the test on CAKI-1 renal is 1460 nM; in the test with ACHN renal it was 729 nM; in the test with A498 renal it was 13000 nM; in the test on UO-31 renal, 1740 nM; in the test on RXF 393 renal, 1180 nM; in the test on HCT-116 colon, 268 nM. The concentration for 50% growth inhibition (GI50) in the test on RPMI-8226 leukemia was 266 nM; in the test on SF-295 CNS, 10400 nM; in the test on MOLT-4 leukemia it was 1320 nM; with MDA-MB-435 it was 1270 nM. The total growth inhibition concentration (TGI) in the test with CAKI-1 renal was 3280 nM; in the test with ACHN renal, 2010 nM; in the test on A498 renal, 25800 nM; with UO-31 renal it was 3120 nM; in the test with RXF 393 renal, 2520 nM; in the test with HCT-116 colon, 1220 nM. The TGI with RPMI-8226 leukemia worked out at 1520 nM; in the test with SF-295 CNS, 22300 nM; in the test with MOLT-4 leukemia it was 4740 nM; in the test on MDA-MB-435, 2870 nM.

With `CCNC(=O)Nc1ccc(-c2nc3c(c(N4CCOC[C@@H]4C)n2)CCN(C2COC2)C3)cc1`, the GI50 in the test on CAKI-1 renal was 586 nM and 179 nM; with ACHN renal, 285 nM and 395 nM; with A498 renal it was 16.4 nM and 30.5 nM; in the test with UO-31 renal, 101 nM and 80.1 nM; in the test on RXF 393 renal, 137 nM and 125 nM; with HCT-116 colon, 1190 nM and 780 nM. Moreover, the GI50 in the test with RPMI-8226 leukemia was 286 nM and 218 nM; in the test on SF-295 CNS it was 158 nM and 166 nM; in the test with MOLT-4 leukemia it was 521 nM and 911 nM; with MDA-MB-435, 300 nM and 318 nM. Besides, the TGI in the test on CAKI-1 renal is over 31500 nM; in the test with ACHN renal, over 56200 nM; in the test with A498 renal it was 114 nM and 200 nM; in the test on UO-31 renal, 2390 nM and 1450 nM; in the test on RXF 393 renal it was 727 nM and 857 nM; in the test on HCT-116 colon, over 100000 nM. Also, the TGI with RPMI-8226 leukemia is 49000 nM and > 8490 nM; in the test on SF-295 CNS it was 1430 nM and 1840 nM; in the test on MOLT-4 leukemia, over 100000 nM; with MDA-MB-435 it was over 25600 nM.

With `Cc1ccccc1NC(=O)N/C(N)=N/c1nc2ccccc2s1`, the GI50 was 49.9 nM in the test on CAKI-1 renal; 72.9 nM with ACHN renal; 26.1 nM in the test with A498 renal; 1300 nM in the test on UO-31 renal; 30 nM in the test with RXF 393 renal; 45.6 nM in the test on HCT-116 colon. For the same molecule, the 50% growth inhibitory concentration (GI50) with RPMI-8226 leukemia was 40.2 nM; in the test on SF-295 CNS it was 29.2 nM; with MOLT-4 leukemia it was 56.9 nM; in the test on MDA-MB-435, 20.8 nM. Also, the TGI in the test with CAKI-1 renal is over 100000 nM; with ACHN renal, over 100000 nM; with A498 renal, 142 nM; in the test on UO-31 renal, over 100000 nM; in the test with RXF 393 renal it was 464 nM; in the test with RPMI-8226 leukemia, 2460 nM. Besides, the TGI with SF-295 CNS is 1170 nM; in the test with MOLT-4 leukemia, over 100000 nM; in the test with MDA-MB-435, 55.3 nM.
